Experimental findings from patent publication US11370798B2 (Vertex Pharmaceuticals Incorporated, priority 2012, dated 2022) are described below.

The assay concerns HCT116 colorectal cancer cells. The experiment in a line: Cisplatin sensitization assay (96 h cell viability MTS).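 Further: Test-compound concentration that lowers the Cisplatin IC50 by a set fold.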 In kind it is cell-based. To be noted: compound and Cisplatin added simultaneously, Cisplatin sensitization value. In a few lines: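 Viability read by MTS (1 h at 37° C) after 96 h co-exposure at 37° C, 5% CO2. Test compound and cisplatin were dosed simultaneously in a full concentration matrix, each 2-fold serially diluted from 10 μM final; sensitization values binned in μM.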

Turning to `CCOC1CN(C(=O)C2CCN(c3ccncc3NC(=O)c3c(N)nn4cc(F)cnc34)CC2)C1` [I-G-91, 2-amino-N-(4-(4-(3-ethoxyazetidine-1-carbonyl)piperidin-1-yl)pyridin-3-yl)-6-fluoropyrazolo[1,5-a]pyrimidine-3-carboxamide], the “Cisplatin Sensitization Assay” value was “+++ (Cisplatin sensitization value of <0.02 μM)”.

As for `CC1(N2CCN(C(=O)C3CCN(c4c(F)cncc4NC(=O)c4c(N)nn5cc(F)cnc45)CC3)CC2)COC1` [I-G-92, 2-amino-6-fluoro-N-(5-fluoro-4-(4-(4-(3-methyloxetan-3-yl)piperazine-1-carbonyl)piperidin-1-yl)pyridin-3-yl)pyrazolo[1,5-a]pyrimidine-3-carboxamide], the “Cisplatin Sensitization Assay” value is listed as “+++ (Cisplatin sensitization value of <0.02 μM)”.

As to `CO[C@@H]1CCN(C(=O)C2CCN(c3ccncc3NC(=O)c3c(N)nn4cc(F)cnc34)CC2)C1` [I-G-93, (R)-2-amino-6-fluoro-N-(4-(4-(3-methoxypyrrolidine-1-carbonyl)piperidin-1-yl)pyridin-3-yl)pyrazolo[1,5-a]pyrimidine-3-carboxamide], the “Cisplatin Sensitization Assay” value is “+++ (Cisplatin sensitization value of <0.02 μM)”.

Consider `CO[C@H]1CCN(C(=O)C2CCN(c3ccncc3NC(=O)c3c(N)nn4cc(F)cnc34)CC2)C1` [I-G-94, (S)-2-amino-6-fluoro-N-(4-(4-(3-methoxypyrrolidine-1-carbonyl)piperidin-1-yl)pyridin-3-yl)pyrazolo[1,5-a]pyrimidine-3-carboxamide], for which the “Cisplatin Sensitization Assay” value is recorded as “+++ (Cisplatin sensitization value of <0.02 μM)”.

`C[N+]1([O-])CCN(C(=O)C2CCN(c3c(F)cncc3NC(=O)c3c(N)nn4cc(F)cnc34)CC2)CC1` [I-G-95, 4-(1-(3-(2-amino-6-fluoropyrazolo[1,5-a]pyrimidine-3-carboxamido)-5-fluoropyridin-4-yl)piperidine-4-carbonyl)-1-methylpiperazine 1-oxide]: the “Cisplatin Sensitization Assay” value was “+++ (Cisplatin sensitization value of <0.02 μM)”.

Consider `CN1CC(N2CCN(C(=O)C3CCN(c4c(F)cncc4NC(=O)c4c(N)nn5cc(F)cnc45)CC3)CC2)C1` [I-G-96, 2-amino-6-fluoro-N-(5-fluoro-4-(4-(4-(1-methylazetidin-3-yl)piperazine-1-carbonyl)piperidin-1-yl)pyridin-3-yl)pyrazolo[1,5-a]pyrimidine-3-carboxamide], for which the “Cisplatin Sensitization Assay” value is on record as “+++ (Cisplatin sensitization value of <0.02 μM)”.

Take `COCC1CN(C(=O)C2CCN(c3c(F)cncc3NC(=O)c3c(N)nn4cc(F)cnc34)CC2)C1` [I-G-98, 2-amino-6-fluoro-N-(5-fluoro-4-(4-(3-(methoxymethyl)azetidine-1-carbonyl)piperidin-1-yl)pyridin-3-yl)pyrazolo[1,5-a]pyrimidine-3-carboxamide]: the “Cisplatin Sensitization Assay” value is on record as “+++ (Cisplatin sensitization value of <0.02 μM)”.

With `CO[C@H]1CCN(C(=O)C2CCN(c3c(F)cncc3NC(=O)c3c(N)nn4cc(F)cnc34)CC2)C1` [I-G-99, (S)-2-amino-6-fluoro-N-(5-fluoro-4-(4-(3-methoxypyrrolidine-1-carbonyl)piperidin-1-yl)pyridin-3-yl)pyrazolo[1,5-a]pyrimidine-3-carboxamide], the “Cisplatin Sensitization Assay” value is “+++ (Cisplatin sensitization value of <0.02 μM)”.

As to `Nc1nn2cc(F)cnc2c1C(=O)Nc1cnccc1N1CCN(C2COC2)CC1` [I-N-1, 2-amino-6-fluoro-N-(4-(4-(oxetan-3-yl)piperazin-1-yl)pyridin-3-yl)pyrazolo[1,5-a]pyrimidine-3-carboxamide], the “Cisplatin Sensitization Assay” value is listed as “++ (Cisplatin sensitization value>0.02 μM but <0.2 μM)”.

As for `N#CCc1cnc2c(C(=O)Nc3cnccc3N3CCC(N)CC3)c(N)nn2c1` [I-N-2, 2-amino-N-(4-(4-aminopiperidin-1-yl)pyridin-3-yl)-6-(cyanomethyl)pyrazolo[1,5-a]pyrimidine-3-carboxamide], the “Cisplatin Sensitization Assay” value is listed as “+++ (Cisplatin sensitization value of <0.02 μM)”.

As for `CN1CCN(c2ccncc2NC(=O)c2c(N)nn3cc(F)cnc23)CC1` [I-N-3, 2-amino-6-fluoro-N-(4-(4-methylpiperazin-1-yl)pyridin-3-yl)pyrazolo[1,5-a]pyrimidine-3-carboxamide], the “Cisplatin Sensitization Assay” value was “+++ (Cisplatin sensitization value of <0.02 μM)”.

Consider `CC(C)N1CCN(c2ccncc2NC(=O)c2c(N)nn3cc(F)cnc23)CC1` [I-N-4, 2-amino-6-fluoro-N-(4-(4-isopropylpiperazin-1-yl)pyridin-3-yl)pyrazolo[1,5-a]pyrimidine-3-carboxamide], for which the “Cisplatin Sensitization Assay” value is “+++ (Cisplatin sensitization value of <0.02 μM)”.

As for `CN1CCN(c2c(NC(=O)c3c(N)nn4cc(F)cnc34)cncc2C2CC2)CC1` [I-N-5, 2-amino-N-(5-cyclopropyl-4-(4-methylpiperazin-1-yl)pyridin-3-yl)-6-fluoropyrazolo[1,5-a]pyrimidine-3-carboxamide], the “Cisplatin Sensitization Assay” value is “++ (Cisplatin sensitization value>0.02 μM but <0.2 μM)”.

For the molecule `Nc1nn2cc(F)cnc2c1C(=O)Nc1cnccc1-n1ccnc1` [I-N-7, N-(4-(1H-imidazol-1-yl)pyridin-3-yl)-2-amino-6-fluoropyrazolo[1,5-a]pyrimidine-3-carboxamide], the “Cisplatin Sensitization Assay” value is “++ (Cisplatin sensitization value>0.02 μM but <0.2 μM)”.

Consider `CNCCc1cnn(-c2ccncc2NC(=O)c2c(N)nn3cc(F)cnc23)c1` [I-N-8, 2-amino-6-fluoro-N-(4-(4-(2-(methylamino)ethyl)-1H-pyrazol-1-yl)pyridin-3-yl)pyrazolo[1,5-a]pyrimidine-3-carboxamide], for which the “Cisplatin Sensitization Assay” value was “+ (Cisplatin sensitization value>0.2 μM but <5 μM)”.

In the case of `CN(C)CCc1cnn(-c2ccncc2NC(=O)c2c(N)nn3cc(F)cnc23)c1` [I-N-9, 2-amino-N-(4-(4-(2-(dimethylamino)ethyl)-1H-pyrazol-1-yl)pyridin-3-yl)-6-fluoropyrazolo[1,5-a]pyrimidine-3-carboxamide], the “Cisplatin Sensitization Assay” value is “+ (Cisplatin sensitization value>0.2 μM but <5 μM)”.

For the molecule `Nc1nn2cc(F)cnc2c1C(=O)Nc1cnccc1N1CCN([C@@H]2CCOC2)CC1` [I-N-10, (R)-2-amino-6-fluoro-N-(4-(4-(tetrahydrofuran-3-yl)piperazin-1-yl)pyridin-3-yl)pyrazolo[1,5-a]pyrimidine-3-carboxamide], the “Cisplatin Sensitization Assay” value is given as “++ (Cisplatin sensitization value>0.02 μM but <0.2 μM)”.

With `Nc1nn2cc(F)cnc2c1C(=O)Nc1cnccc1N1CCN(C2CCOCC2)CC1` [I-N-11, 2-amino-6-fluoro-N-(4-(4-(tetrahydro-2H-pyran-4-yl)piperazin-1-yl)pyridin-3-yl)pyrazolo[1,5-a]pyrimidine-3-carboxamide], the “Cisplatin Sensitization Assay” value was “++ (Cisplatin sensitization value>0.02 μM but <0.2 μM)”.

Regarding `Nc1nn2cc(F)cnc2c1C(=O)Nc1cnccc1N1CCN([C@H]2CCOC2)CC1` [I-N-12, (S)-2-amino-6-fluoro-N-(4-(4-(tetrahydrofuran-3-yl)piperazin-1-yl)pyridin-3-yl)pyrazolo[1,5-a]pyrimidine-3-carboxamide], the “Cisplatin Sensitization Assay” value was “+++ (Cisplatin sensitization value of <0.02 μM)”.

Take `Nc1nn2cc(F)cnc2c1C(=O)Nc1cncc(F)c1N1CCN(C2COC2)CC1` [I-N-13, 2-amino-6-fluoro-N-(5-fluoro-4-(4-(oxetan-3-yl)piperazin-1-yl)pyridin-3-yl)pyrazolo[1,5-a]pyrimidine-3-carboxamide]: the “Cisplatin Sensitization Assay” value was “+++ (Cisplatin sensitization value of <0.02 μM)”.

As to `CN1CCN(c2c(F)cncc2NC(=O)c2c(N)nn3cc(Cl)cnc23)CC1` [I-N-14, 2-amino-6-chloro-N-(5-fluoro-4-(4-methylpiperazin-1-yl)pyridin-3-yl)pyrazolo[1,5-a]pyrimidine-3-carboxamide], the “Cisplatin Sensitization Assay” value was “+++ (Cisplatin sensitization value of <0.02 μM)”.

For the molecule `CN1CCN(c2c(F)cncc2NC(=O)c2c(N)nn3cc(F)cnc23)CC1` [I-N-15, 2-amino-6-fluoro-N-(5-fluoro-4-(4-methylpiperazin-1-yl)pyridin-3-yl)pyrazolo[1,5-a]pyrimidine-3-carboxamide], the “Cisplatin Sensitization Assay” value is listed as “+++ (Cisplatin sensitization value of <0.02 μM)”.

In the case of `Cc1cncc(NC(=O)c2c(N)nn3cc(F)cnc23)c1N1CCN(C2COC2)CC1` [I-N-16, 2-amino-6-fluoro-N-(5-methyl-4-(4-(oxetan-3-yl)piperazin-1-yl)pyridin-3-yl)pyrazolo[1,5-a]pyrimidine-3-carboxamide], the “Cisplatin Sensitization Assay” value is on record as “+++ (Cisplatin sensitization value of <0.02 μM)”.

As to `CCN1CCN(c2ccncc2NC(=O)c2c(N)nn3cc(F)cnc23)CC1` [I-N-17, 2-amino-N-(4-(4-ethylpiperazin-1-yl)pyridin-3-yl)-6-fluoropyrazolo[1,5-a]pyrimidine-3-carboxamide], the “Cisplatin Sensitization Assay” value was “+++ (Cisplatin sensitization value of <0.02 μM)”.

In the case of `Nc1nn2cc(F)cnc2c1C(=O)Nc1cnccc1N1CCN2CCC1CC2` [I-N-18, N-(4-(1,4-diazabicyclo[3.2.2]nonan-4-yl)pyridin-3-yl)-2-amino-6-fluoropyrazolo[1,5-a]pyrimidine-3-carboxamide], the “Cisplatin Sensitization Assay” value was “++ (Cisplatin sensitization value>0.02 μM but <0.2 μM)”.

`Nc1nn2cc(F)cnc2c1C(=O)Nc1cnccc1N1CCN(CC(F)(F)F)CC1` [I-N-20, 2-amino-6-fluoro-N-(4-(4-(2,2,2-trifluoroethyl)piperazin-1-yl)pyridin-3-yl)pyrazolo[1,5-a]pyrimidine-3-carboxamide]: the “Cisplatin Sensitization Assay” value is “+++ (Cisplatin sensitization value of <0.02 μM)”.

On to `Nc1nn2cc(F)cnc2c1C(=O)Nc1cnccc1N1CCN2CCC[C@H]2C1` [I-N-21, (S)-2-amino-6-fluoro-N-(4-(hexahydropyrrolo[1,2-a]pyrazin-2(1H)-yl)pyridin-3-yl)pyrazolo[1,5-a]pyrimidine-3-carboxamide], for which the “Cisplatin Sensitization Assay” value is listed as “+++ (Cisplatin sensitization value of <0.02 μM)”.

`C[C@@H]1CN(C2COC2)CCN1c1ccncc1NC(=O)c1c(N)nn2cc(F)cnc12` [I-N-23, (R)-2-amino-6-fluoro-N-(4-(2-methyl-4-(oxetan-3-yl)piperazin-1-yl)pyridin-3-yl)pyrazolo[1,5-a]pyrimidine-3-carboxamide]: the “Cisplatin Sensitization Assay” value is “+++ (Cisplatin sensitization value of <0.02 μM)”.
